# Experiments:
# [1] = system: patients with acute myocardial infarction; test: Multicentre randomized, double-blind, placebo-controlled, parallel-group clinical trial of L-carnitine; format: in vivo, human; conditions: for RR (Relative Risk) of death at 1 mo. / RR (Relative Risk) of death at 2 mos. / RR (Relative Risk) of death at 6 mos. / RR (Relative Risk) of death at 12 mos. / RR (Relative Risk) of death at 3 days / RR (Relative Risk) of death at 5 days / RR (Relative Risk) of death at 7 days: vs placebo
# Method: A clinical trial was conducted aimed at evaluating the effect of the administration of L-carnitine on short-, medium- and long-term incidence and mortality in patients with acute myocardial infarction. The trial design was that of a multicentre randomized, double-blind, placebo-controlled, parallel-group trial.
# A total of 2,296 patients of male and female sex were recruited, aged below 80 years, subdivided into groups. The study compound, L-carnitine, was administered at a dose of 9 g/day i.v. for the first 5 days and 4 g/day by mouth from day 6 to day 180.
# In particular, in one group of patients the L-carnitine was administered intravenously dissolved in sterile saline solution, while in another group of patients it was administered dissolved in normal 5% glucose solution used in hospital departments.
# The control group received the standard therapy used for the treatment of infarct, without L-carnitine.
# Concomitant therapies were administered according to the procedures adopted in local clinical practice.
# The efficacy parameters evaluated were reduction of mortality, reduction of the number of days spent in intensive care, and reduction of the number of episodes of post-infarction heart failure.
# • Typical chest pain lasting >30 minutes which is not relieved by oral or i.v. administration of nitrates; • ECG with ST-segment elevation 0.2 mV in D, and in lead aVL and/or in at least two contiguous precordial leads; • Time interval elapsing between onset of symptoms and study randomisation <12 hours; • Age <80 years; • Written informed consent. Exclusion Criteria • Pregnancy or breast-feeding; • Haemodynamically significant valvulopathy; • Hypertrophic or dilatory cardiomyopathy; • Congenital cardiopathy; • Clinically severe liver and kidney disease; • Alcohol abuse; • Other diseases associated with a poor life expectancy; • Conditions making poor compliance with treatment and/or periodic examinations likely; • Inclusion in another trial.
# [2] = system: patients with signs of infarction; conditions: 40 mg/kg/day (2.8 g/day), cited from earlier work
# infarction patients [3] = conditions: two deaths also in the placebo group; cited from earlier work
# [4] = system: patients presenting infarction symptoms; conditions: 2 g/day; 6 in the control group; cited from earlier work
# [5] = system: patients with acute myocardial infarction; conditions: 3 grams every 8 hours (9 grams a day) intravenously for 48 hours; control saline solution; cited from earlier work
# infarction patients [6] = conditions: L-carnitine administered within 24 hours of the infarction; 14 in the control group; cited from earlier work
# [7] = system: experimental cardiac ischaemia model; conditions: dogs; cited from earlier work
# [8] = all patients, L-carnitine in saline or glucose solution
# [9] = group treated with L-carnitine dissolved in glucose solution
# [10] = L-carnitine dissolved in glucose solution
# [11] = all patients, saline or glucose solution
smiles,measurement,setting,value
C[N+](C)(C)C[C@H](O)CC(=O)[O-] [L-carnitine],NUMBER OF DEATHS AT: 1 mo.,[1]; [8],45
same,NUMBER OF DEATHS AT: 1 mo.,[1]; [9],22
same,RR (Relative Risk) of death at 1 mo.,[1]; [10],0.79
same,RR (Relative Risk) of death at 1 mo.,[1]; [11],0.78
same,NUMBER OF DEATHS AT: 2 mos.,[1]; [8],53
same,NUMBER OF DEATHS AT: 2 mos.,[1]; [9],26
same,RR (Relative Risk) of death at 2 mos.,[1]; [10],0.80
same,RR (Relative Risk) of death at 2 mos.,[1]; [11],0.81
same,NUMBER OF DEATHS AT: 6 mos.,[1]; [8],64
same,NUMBER OF DEATHS AT: 6 mos.,[1]; [9],32
same,RR (Relative Risk) of death at 6 mos.,[1]; [10],0.87
same,RR (Relative Risk) of death at 6 mos.,[1]; [11],0.86
same,NUMBER OF DEATHS AT: 12 mos.,[1]; [8],67
same,NUMBER OF DEATHS AT: 12 mos.,[1]; [9],33
same,RR (Relative Risk) of death at 12 mos.,[1]; [10],0.88
same,RR (Relative Risk) of death at 12 mos.,[1]; [11],0.89
same,NUMBER OF DEATHS AT: 3 days,"[1]; all patients, L-carnitine in saline or glucose solution, 9 g/day i.v. 5 days then 4 g/day oral",23
same,NUMBER OF DEATHS AT: 3 days,[1]; [9],11
same,RR (Relative Risk) of death at 3 days,[1]; [10],0.67
same,RR (Relative Risk) of death at 3 days,[1]; [11],0.68
same,NUMBER OF DEATHS AT: 5 days,[1]; [8],27
same,NUMBER OF DEATHS AT: 5 days,[1]; [9],13
same,RR (Relative Risk) of death at 5 days,[1]; [10],0.64
same,RR (Relative Risk) of death at 5 days,[1]; [11],0.63
same,NUMBER OF DEATHS AT: 7 days,[1]; [8],31
same,NUMBER OF DEATHS AT: 7 days,[1]; [9],15
same,RR (Relative Risk) of death at 7 days,[1]; [10],0.70
same,RR (Relative Risk) of death at 7 days,[1]; [11],0.69
same,difference between patients treated within 4 hours of onset of symptoms of infarction and patients treated 4 hours after onset,[2],no statistically significant difference
same,number of deaths in the treated group,[2]; one in the control group,none
same,deaths in the group treated with L-carnitine,infarction patients [3],two
same,number of deaths at 28 days after the start of treatment,[4],4
same,"mortality at 7 days after the start of treatment, control group vs treated group",[5],no significant difference
same,patients in the treated group who died over the entire hospitalisation period,infarction patients [6],11
same,enhancing cardiac lipid metabolism,[7],active

# From patent US8394854B2, “Use of L-carnitine for the treatment of cardiovascular diseases” (Sigma-Tau Industrie Farmaceutiche Riunite S.p.A., priority 2004, dated 2013)
